US20240415914A1, “Water Dispersible Cannabinoid Compositions” (priority 2021, published 2024)
Where two headings read alike, the source gives them in different places.

Tests used:
[1] = format: physicochemical; conditions: stored at room temperature (21-25° C.)
Experimental: At each time period, 0.05 g of powder was dissolved in 10 ml-15 of ethanol, diluted to fall within the analytical range, and injected into the LCMSMS for analysis.

[2] = Stability of cannabinoid and Vitamin E components of Beverage 2 (AB Red) stored at 8° C. and 21-25° C., LCMSMS over 570 days
Experimental: The LCMSMS was calibrated for 0-50 ng/ml cannabinoids with the same resin material used in the preparation of the concentrates. At each time period, 100 μml of beverage was diluted with 10 ml of methanol and injected into the LCMSMS for analysis.

## Cc1c(C)c2c(c(C)c1O)CC[C@@](C)(CCC[C@H](C)CCC[C@H](C)CCCC(C)C)O2 [α-Tocopherol]
[1]; day 0
  Stability in Powder Concentrate (content by LCMSMS): 4.85 mg/g powder
[1]; day 1
  Stability in Powder Concentrate (content by LCMSMS): 4.89 mg/g powder
[1]; day 2
  Stability in Powder Concentrate (content by LCMSMS): 4.79 mg/g powder
[1]; day 3
  Stability in Powder Concentrate (content by LCMSMS): 4.69 mg/g powder
[1]; day 5
  Stability in Powder Concentrate (content by LCMSMS): 4.99 mg/g powder
[1]; day 8
  Stability in Powder Concentrate (content by LCMSMS): 4.69 mg/g powder
[1]; day 9
  Stability in Powder Concentrate (content by LCMSMS): 4.75 mg/g powder
[1]; day 10
  Stability in Powder Concentrate (content by LCMSMS): 4.77 mg/g powder
[1]; day 11
  Stability in Powder Concentrate (content by LCMSMS): 5.04 mg/g powder
[1]; day 12
  Stability in Powder Concentrate (content by LCMSMS): 5.01 mg/g powder
[1]; day 15
  Stability in Powder Concentrate (content by LCMSMS): 5.07 mg/g powder
[1]; day 16
  Stability in Powder Concentrate (content by LCMSMS): 4.96 mg/g powder
[1]; day 17
  Stability in Powder Concentrate (content by LCMSMS): 4.94 mg/g powder
[1]; day 18
  Stability in Powder Concentrate (content by LCMSMS): 4.77 mg/g powder
[1]; day 19
  Stability in Powder Concentrate (content by LCMSMS): 5.04 mg/g powder
[1]; day 22
  Stability in Powder Concentrate (content by LCMSMS): 4.94 mg/g powder
[1]; day 23
  Stability in Powder Concentrate (content by LCMSMS): 4.91 mg/g powder
[1]; day 24
  Stability in Powder Concentrate (content by LCMSMS): 5.00 mg/g powder
[1]; day 25
  Stability in Powder Concentrate (content by LCMSMS): 5.06 mg/g powder
[1]; day 26
  Stability in Powder Concentrate (content by LCMSMS): 4.84 mg/g powder
[1]; day 29
  Stability in Powder Concentrate (content by LCMSMS): 4.85 mg/g powder
[1]; day 30
  Stability in Powder Concentrate (content by LCMSMS): 4.83 mg/g powder
[1]; day 60
  Stability in Powder Concentrate (content by LCMSMS): 4.91 mg/g powder
[1]; day 90
  Stability in Powder Concentrate (content by LCMSMS): 4.96 mg/g powder
[1]; day 120
  Stability in Powder Concentrate (content by LCMSMS): 4.93 mg/g powder
[1]; day 150
  Stability in Powder Concentrate (content by LCMSMS): 4.69 mg/g powder
[1]; day 180
  Stability in Powder Concentrate (content by LCMSMS): 4.70 mg/g powder
[1]; day 210
  Stability in Powder Concentrate (content by LCMSMS): 4.84 mg/g powder
[1]; day 240
  Stability in Powder Concentrate (content by LCMSMS): 5.03 mg/g powder
[1]; day 270
  Stability in Powder Concentrate (content by LCMSMS): 4.78 mg/g powder
[1]; day 300
  Stability in Powder Concentrate (content by LCMSMS): 4.81 mg/g powder
[1]; day 330
  Stability in Powder Concentrate (content by LCMSMS): 4.81 mg/g powder
[1]; day 360
  Stability in Powder Concentrate (content by LCMSMS): 4.83 mg/g powder
[1]; day 390
  Stability in Powder Concentrate (content by LCMSMS): 4.91 mg/g powder
[1]; day 420
  Stability in Powder Concentrate (content by LCMSMS): 4.69 mg/g powder
[1]; day 450
  Stability in Powder Concentrate (content by LCMSMS): 5.00 mg/g powder
[1]; day 480
  Stability in Powder Concentrate (content by LCMSMS): 4.98 mg/g powder
[1]; day 510
  Stability in Powder Concentrate (content by LCMSMS): 5.02 mg/g powder
[1]; day 540
  Stability in Powder Concentrate (content by LCMSMS): 5.03 mg/g powder
[1]; day 570
  Stability in Powder Concentrate (content by LCMSMS): 4.72 mg/g powder
[2]; 8° C., 0 days
  Stability of Vitamin Es in AB Red: 25.3 µg/mL
[2]; 8° C., 1 days
  Stability of Vitamin Es in AB Red: 25.2 µg/mL
[2]; 8° C., 2 days
  Stability of Vitamin Es in AB Red: 24.9 µg/mL
[2]; 8° C., 3 days
  Stability of Vitamin Es in AB Red: 25.3 µg/mL
[2]; 8° C., 5 days
  Stability of Vitamin Es in AB Red: 24.2 µg/mL
[2]; 8° C., 8 days
  Stability of Vitamin Es in AB Red: 23.7 µg/mL
[2]; 8° C., 9 days
  Stability of Vitamin Es in AB Red: 24.6 µg/mL
[2]; 8° C., 10 days
  Stability of Vitamin Es in AB Red: 24.9 µg/mL
[2]; 8° C., 11 days
  Stability of Vitamin Es in AB Red: 23.9 µg/mL
[2]; 8° C., 12 days
  Stability of Vitamin Es in AB Red: 24.4 µg/mL
[2]; 8° C., 15 days
  Stability of Vitamin Es in AB Red: 25.6 µg/mL
[2]; 8° C., 16 days
  Stability of Vitamin Es in AB Red: 24.5 µg/mL
[2]; 8° C., 17 days
  Stability of Vitamin Es in AB Red: 23.6 µg/mL
[2]; 8° C., 18 days
  Stability of Vitamin Es in AB Red: 24.1 µg/mL
[2]; 8° C., 19 days
  Stability of Vitamin Es in AB Red: 24.0 µg/mL
[2]; 8° C., 22 days
  Stability of Vitamin Es in AB Red: 25.0 µg/mL
[2]; 8° C., 23 days
  Stability of Vitamin Es in AB Red: 23.2 µg/mL
[2]; 8° C., 24 days
  Stability of Vitamin Es in AB Red: 24.3 µg/mL
[2]; 8° C., 25 days
  Stability of Vitamin Es in AB Red: 23.6 µg/mL
[2]; 8° C., 26 days
  Stability of Vitamin Es in AB Red: 25.2 µg/mL
[2]; 8° C., 29 days
  Stability of Vitamin Es in AB Red: 23.5 µg/mL
[2]; 8° C., 30 days
  Stability of Vitamin Es in AB Red: 24.2 µg/mL
[2]; 8° C., 60 days
  Stability of Vitamin Es in AB Red: 24.2 µg/mL
[2]; 8° C., 90 days
  Stability of Vitamin Es in AB Red: 23.1 µg/mL
[2]; 8° C., 120 days
  Stability of Vitamin Es in AB Red: 25.2 µg/mL
[2]; 8° C., 150 days
  Stability of Vitamin Es in AB Red: 25.4 µg/mL
[2]; 8° C., 180 days
  Stability of Vitamin Es in AB Red: 23.6 µg/mL
[2]; 8° C., 210 days
  Stability of Vitamin Es in AB Red: 23.5 µg/mL
[2]; 8° C., 240 days
  Stability of Vitamin Es in AB Red: 23.6 µg/mL
[2]; 8° C., 270 days
  Stability of Vitamin Es in AB Red: 23.6 µg/mL
[2]; 8° C., 300 days
  Stability of Vitamin Es in AB Red: 23.1 µg/mL
[2]; 8° C., 330 days
  Stability of Vitamin Es in AB Red: 22.9 µg/mL
[2]; 8° C., 390 days
  Stability of Vitamin Es in AB Red: 23.1 µg/mL
[2]; 8° C., 420 days
  Stability of Vitamin Es in AB Red: 22.3 µg/mL
[2]; 8° C., 450 days
  Stability of Vitamin Es in AB Red: 22.7 µg/mL
[2]; 8° C., 480 days
  Stability of Vitamin Es in AB Red: 21.8 µg/mL
[2]; 8° C., 510 days
  Stability of Vitamin Es in AB Red: 22.0 µg/mL
[2]; 8° C., 540 days
  Stability of Vitamin Es in AB Red: 21.8 µg/mL
[2]; 8° C., 570 days
  Stability of Vitamin Es in AB Red: 21.5 µg/mL
[2]; 21-25° C., 0 days
  Stability of Vitamin Es in AB Red: 25.3 µg/mL
[2]; 21-25° C., 1 days
  Stability of Vitamin Es in AB Red: 24.4 µg/mL
[2]; 21-25° C., 2 days
  Stability of Vitamin Es in AB Red: 24.1 µg/mL
[2]; 21-25° C., 3 days
  Stability of Vitamin Es in AB Red: 23.8 µg/mL
[2]; 21-25° C., 5 days
  Stability of Vitamin Es in AB Red: 22.9 µg/mL
[2]; 21-25° C., 8 days
  Stability of Vitamin Es in AB Red: 24.5 µg/mL
[2]; 21-25° C., 9 days
  Stability of Vitamin Es in AB Red: 23.3 µg/mL
[2]; 21-25° C., 10 days
  Stability of Vitamin Es in AB Red: 23.0 µg/mL
[2]; 21-25° C., 11 days
  Stability of Vitamin Es in AB Red: 24.4 µg/mL
[2]; 21-25° C., 12 days
  Stability of Vitamin Es in AB Red: 23.4 µg/mL
[2]; 21-25° C., 15 days
  Stability of Vitamin Es in AB Red: 24.8 µg/mL
[2]; 21-25° C., 16 days
  Stability of Vitamin Es in AB Red: 25.1 µg/mL
[2]; 21-25° C., 17 days
  Stability of Vitamin Es in AB Red: 24.4 µg/mL
[2]; 21-25° C., 18 days
  Stability of Vitamin Es in AB Red: 24.9 µg/mL
[2]; 21-25° C., 19 days
  Stability of Vitamin Es in AB Red: 25.4 µg/mL
[2]; 21-25° C., 22 days
  Stability of Vitamin Es in AB Red: 25.4 µg/mL
[2]; 21-25° C., 23 days
  Stability of Vitamin Es in AB Red: 24.6 µg/mL
[2]; 21-25° C., 24 days
  Stability of Vitamin Es in AB Red: 23.5 µg/mL
[2]; 21-25° C., 25 days
  Stability of Vitamin Es in AB Red: 25.5 µg/mL
[2]; 21-25° C., 26 days
  Stability of Vitamin Es in AB Red: 24.3 µg/mL
[2]; 21-25° C., 29 days
  Stability of Vitamin Es in AB Red: 24.4 µg/mL
[2]; 21-25° C., 30 days
  Stability of Vitamin Es in AB Red: 24.6 µg/mL
[2]; 21-25° C., 60 days
  Stability of Vitamin Es in AB Red: 24.4 µg/mL
[2]; 21-25° C., 90 days
  Stability of Vitamin Es in AB Red: 24.3 µg/mL
[2]; 21-25° C., 120 days
  Stability of Vitamin Es in AB Red: 23.7 µg/mL
[2]; 21-25° C., 150 days
  Stability of Vitamin Es in AB Red: 23.4 µg/mL
[2]; 21-25° C., 180 days
  Stability of Vitamin Es in AB Red: 23.3 µg/mL
[2]; 21-25° C., 210 days
  Stability of Vitamin Es in AB Red: 22.7 µg/mL
[2]; 21-25° C., 240 days
  Stability of Vitamin Es in AB Red: 23.1 µg/mL
[2]; 21-25° C., 270 days
  Stability of Vitamin Es in AB Red: 23.1 µg/mL
[2]; 21-25° C., 300 days
  Stability of Vitamin Es in AB Red: 23.5 µg/mL
[2]; 21-25° C., 330 days
  Stability of Vitamin Es in AB Red: 22.6 µg/mL
[2]; 21-25° C., 390 days
  Stability of Vitamin Es in AB Red: 22.7 µg/mL
[2]; 21-25° C., 420 days
  Stability of Vitamin Es in AB Red: 22.5 µg/mL
[2]; 21-25° C., 450 days
  Stability of Vitamin Es in AB Red: 22.3 µg/mL
[2]; 21-25° C., 480 days
  Stability of Vitamin Es in AB Red: 21.6 µg/mL
[2]; 21-25° C., 510 days
  Stability of Vitamin Es in AB Red: 21.4 µg/mL
[2]; 21-25° C., 540 days
  Stability of Vitamin Es in AB Red: 21.0 µg/mL
[2]; 21-25° C., 570 days
  Stability of Vitamin Es in AB Red: 21.4 µg/mL
